The text below walks through data of patent US5523308A, “Peptidyl heterocycles useful in the treatment of thrombin related disorders” (priority 1995, dated 1996).

Data set [1] can be described thus: Ex vivo i.v. assay for duration of action: time to half plasma elimination from thrombin inhibition in rat plasma. The conditions noted are these: male Long Evans rats, i.v. via femoral vein, from slope of Vo vs. time.
Method: (§1) An ex vivo assay was conducted to determine the duration of action of the compounds of Formula I. For this i.v. assay male rats (Long Evans, 350-500 g) were implanted with a teflon cannulae via the femoral artery while under anesthesia (pentobarbital i.p., 35 mg/kg). […] The animals were allowed to recover for at least 24 h after the surgical procedure.
(§2) The test compound was dispersed in water and delivered to the animal (0.25 mL) via the femoral vein. […] A plasma sample was obtained by centrifuging the blood at 10,000 rpm for 5 min. This sample is analyzed for thrombin inhibition using the chromogenic assay, described below.
(§3) Datum was collected over a 30 min period and the initial rate of substrate hydrolysis (V0 (mOD/min)) was calculated with an analysis program (Softmax, Molecular Devices).
(§4) The time to half plasma elimination (t 1/2) was calculated from the slope of Vo vs. time, using the following equation: t 1/2=-1.6 slope.
In the next data set the target is T1, Bovine type 1 trypsin (Bos taurus, UniProt P00760).
T1 construct: purchased Sigma
T1 sequence (P00760 24-246): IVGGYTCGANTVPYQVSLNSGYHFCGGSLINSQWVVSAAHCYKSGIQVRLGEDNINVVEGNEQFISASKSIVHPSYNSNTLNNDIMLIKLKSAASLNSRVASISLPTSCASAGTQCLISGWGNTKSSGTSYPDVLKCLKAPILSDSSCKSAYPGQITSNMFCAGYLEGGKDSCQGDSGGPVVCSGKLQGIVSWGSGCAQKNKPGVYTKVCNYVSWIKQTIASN
The experiment in a line: Trypsin-catalyzed hydrolysis of chromogenic substrate Spectrozyme TRY (in vitro enzyme assay). The class given is biochemical. The conditions noted are these: 3.2 U/ml trypsin, 0.1-0.3 mM Spectrozyme TRY; read-out: Trp IC50. How it is done: The compounds of the invention were tested for their ability to inhibit thrombin mediated hydrolysis. An in vitro enzyme assay was performed as well as an ex vivo assay. In addition, the compounds were tested in vitro for their ability to inhibit trypsin, as an indication of their selectivity.
Trypsin-catalyzed hydrolysis rates were measured using the same method as the thrombin procedure.
The compound numbers in the table correspond to the examples described hereinafter.

Data set [2] is described as follows: Ex vivo bioavailability assay, i.v. and p.o. dosing, thrombin inhibition in rat plasma. The conditions noted are these: male rats, p.o. vs i.v., extrapolated drug in plasma vs. time. How it is done: Bioavailability was determined by an ex vivo assay which incorporated hydrolysis rates from drug administered both i.v. and p.o. In this assay male rats were prepared as described above with a teflon tube implanted in their femoral artery. […] The test compound was dispersed in water (0.3-3.0 mg/mL final conc.) and delivered to the animals (0.25 mL) either i.v. or p.o..
A standard curve was generated by adding of drug or vehicle (100 μL) to whole blood (900 μL) followed by incubating (5 min) and centrifuging to obtain plasma. The percentage of thrombin inhibition was calculated by comparing the V0 of the vehicle to that of the drug treated samples. Datum from several runs were normalized with a statistical package (SAS) to generate a standard curve.
The percentage of thrombin inhibition in the treated animals was calculated by comparing the V0 prior to treatment with the V0 obtained from samples collected after treatment. The percent inhibition was applied to the standard curve (generated above) using the statistical package (SAS) and the quantity of drug in the sample was extrapolated.
Bioavailability (Bioavail.) was calculated from the plots of the extrapolated drug in sample vs. time for both i.v. and p.o. administration using the following equation:
%Bioavail. =(i.v. dose administered/p.o. dose administered)×(area under p.o. curve/area under curve i.v.)

For data set [3] the following is noted: rat, in vivo, iv.
Method: as §1, §2, §3, §4
For the next data set, the target named is T2, human alpha-thrombin (Homo sapiens, UniProt P00734).
T2 construct: commercial human alpha-thrombin (American Diagnostica); purchased American Diagnostica
The experiment in a line: Thrombin-catalyzed hydrolysis of chromogenic substrate Spectozyme TH (in vitro enzyme assay). The class given is biochemical. The conditions noted are these: 1 nM thrombin, 37° C., pH 7.4.

In the next data set the test system is trypsin. To be noted: pancreatic agents quoted for comparison; read-out: IC50 (trypsin inhibitors used clinically); cited from earlier work.

Read-outs that look alike come from different tables or passages of the source.

Method for human alpha-thrombin: Thrombin-catalyzed hydrolysis rates were measured spectrophotometrically using commercial human alpha-thrombin (American Diagnostica), a chromogenic substrate (Spectozyme® TH (H-D-HHT-Ala-Arg-pNA.2AcOH), American Diagnostica) in aqueous buffer (10 mM Tris, 10 mM Hepes, 150 mM NaCl, 0.1% PEG; pH 7.4), and a microplate reader (Molecular Devices). Changes in absorbance at 405 nm were monitored (Softmax, Molecular Devices), upon addition of enzyme, both with and without inhibitor present at 37° C. over 30 minutes. […] Michaelis-Menton kinetics were applied to the initial reaction slopes. […] Michaelis-Menton kinetics were applied to the initial reaction slopes using the program K.Cat (Bio Metallics Inc.).

Take `CNC(C(=O)N1CCC[C@H]1C(=O)N[C@@H](CCCNC(=N)N)C(=O)c1nc2ccccc2s1)c1ccccc1` (single isomer, unassigned) [Compound 34]: the “t1/2 (time to half plasma elimination)” value in data set [1] stood at 26 min. Moreover, the IC50 on Bovine type 1 trypsin is 0.003 µM.

On to `CN[C@H](Cc1ccccc1)C(=O)N1CCC[C@H]1C(=O)N[C@@H](CCCNC(=N)N)C(=O)c1nc2ccccc2s1` [Compound 1, N-METHYL-D-PHENYLALANYL-N-[4-[(AMINOIMINOMETHYL)AMINO]-1S-[(BENXOTHIAZOL-2- YL)CARBONYL]BUTYL]-L-PROLINAMIDE], for which, in data set [2], the “Bioavail,” value is recorded as 1.2%. For the same compound, in data set [3], the “t1/2 (time to half plasma elimination)” value came to 19 min. Further, the Ki at human alpha-thrombin (5-100 μM Spectozyme TH, read-out: Thr Ki (listed in place of the IC50)) stood at 0.00023 µM.

For the compound `CN[C@H](Cc1ccccc1)C(=O)N1CCC[C@H]1C(=O)N[C@@H](CCCNC(=N)N)C(=O)c1nc2ccc(O)cc2s1` [Compound 25, N-METHYL-D-PHENYLALANYL-N-[4-[(AMINOIMINOMETHYL)AMINO]-1S-[(6-HYDROXYBENXOT HIAZOL-2-YL)CARBONYL]BUTYL]-L-PROLINAMIDE], the “t1/2 (time to half plasma elimination)” value in data set [1] is 14 min.

Take `CN[C@H](Cc1ccccc1)C(=O)N1CCC[C@H]1C(=O)N[C@@H](CCCNC(=N)N)C(=O)c1nc(C(=O)O)cs1` [Compound 54, N-METHYL-D-PHENYLALANYL-N-[4-[(AMINOIMINOMETHYL)AMINO]-1S-[(4-CARBOXYTHIAZO L-2-YL)CARBONYL]BUTYL]-L-PROLINAMIDE]: the “t1/2 (time to half plasma elimination)” value in data set [3] was determined as 15 min. The IC50 turned out to be 0.11 µM at human alpha-thrombin (50 μM Spectozyme TH, read-out: Thr IC50) and 0.013 µM at Bovine type 1 trypsin.

For the compound `CN(C)C(=O)COC(=O)Cc1ccc(OC(=O)c2ccc(NC(=N)N)cc2)cc1` [camostat mesilate], the IC50 with trypsin is 0.01 µM.

Take `N=C(N)c1ccc2cc(OC(=O)c3ccc(N=C(N)N)cc3)ccc2c1` [nafamostat]: in the data set with trypsin, the IC50 was 0.013 µM.
